In the supplement of paper PMC13207355:

Key:
Conditions in all cases: exposure time: 72 h
FT3469 [1] = normal neural stem cell line; assay: phenotypic distance (Euclidean, principal components) from DMSO controls (arbitrary units); higher = stronger morphological change
E21 [2] = patient-derived glioblastoma stem cells of mesenchymal subtype; assay: as above
E34 [3] = patient-derived glioblastoma stem cells of proneural subtype; assay: as above
E28 [4] = patient-derived glioblastoma stem cells of classical subtype; assay: as above
E13 [5] = patient-derived glioblastoma stem cells of classical subtype; assay: as above
E31 [6] = patient-derived glioblastoma stem cells of proneural subtype; assay: as above
E57 [7] = patient-derived glioblastoma stem cells of mesenchymal subtype; assay: as above
FT3469 [8] = assay: surviving fraction (nuclei count normalised to DMSO); higher = more cells surviving (less toxic)
E21 [9] = assay: as above
E34 [10] = assay: as above
E28 [11] = assay: as above
E13 [12] = assay: as above
E31 [13] = assay: as above
E57 [14] = assay: as above
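Wherever phenotypic distance (Euclidean, principal components) from DMSO controls is given: cell Painting imaging in 384-well plates, CellProfiler features reduced to at least 20 principal components, Euclidean distance versus same-plate DMSO vehicle wells (0.1% v/v), median over six images per well.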
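Wherever surviving fraction (nuclei count normalised to DMSO) is given: nuclei counted by high-content imaging of Hoechst-stained cells in laminin-coated 384-well plates, relative to 0.1% DMSO vehicle wells, with staurosporine as cell-death control.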

For `C[C@]12CC[C@H](O)C[C@H]1CC[C@@H]1[C@@H]2C[C@@H](O)[C@]2(C)[C@@H](C3=CC(=O)OC3)CC[C@]12O` [Digoxigenin], the phenotypic distance (FT3469 [1]; 4.1 nM) was 1, the phenotypic distance (FT3469 [1]; 12.3 nM) was 1.82 and the phenotypic distance (FT3469 [1]; 37 nM) was 0.883. The phenotypic distance (FT3469 [1]; 111.1 nM) was 1.27, the phenotypic distance (FT3469 [1]; 333.3 nM) was 2.84 and the phenotypic distance (FT3469 [1]; 1000 nM) was 4.38. The phenotypic distance (FT3469 [1]; 3000 nM) was 3.34, the phenotypic distance (E21 [2]; 4.1 nM) was 0.486 and the phenotypic distance (E21 [2]; 12.3 nM) was 0.815. It also gave a phenotypic distance (E21 [2]; 37 nM) of 0.94, a phenotypic distance (E21 [2]; 111.1 nM) of 1.64 and a phenotypic distance (E21 [2]; 333.3 nM) of 3.18. It also gave a phenotypic distance (E21 [2]; 1000 nM) of 3.95, a phenotypic distance (E21 [2]; 3000 nM) of 6.35 and a phenotypic distance (E34 [3]; 4.1 nM) of 0.591. The phenotypic distance (E34 [3]; 12.3 nM) was 0.506, the phenotypic distance (E34 [3]; 37 nM) was 0.531 and the phenotypic distance (E34 [3]; 111.1 nM) was 0.98. It also gave a phenotypic distance (E34 [3]; 333.3 nM) of 1.57, a phenotypic distance (E34 [3]; 1000 nM) of 3.22 and a phenotypic distance (E34 [3]; 3000 nM) of 4.52. It also gave a phenotypic distance (E28 [4]; 4.1 nM) of 0.383, a phenotypic distance (E28 [4]; 12.3 nM) of 0.587 and a phenotypic distance (E28 [4]; 37 nM) of 0.46. It also gave a phenotypic distance (E28 [4]; 111.1 nM) of 0.569, a phenotypic distance (E28 [4]; 333.3 nM) of 0.59 and a phenotypic distance (E28 [4]; 1000 nM) of 1.04. It also gave a phenotypic distance (E28 [4]; 3000 nM) of 2.24, a phenotypic distance (E13 [5]; 4.1 nM) of 0.193 and a phenotypic distance (E13 [5]; 12.3 nM) of 0.571. It also gave a phenotypic distance (E13 [5]; 37 nM) of 0.503, a phenotypic distance (E13 [5]; 111.1 nM) of 0.911 and a phenotypic distance (E13 [5]; 333.3 nM) of 2.63. It also gave a phenotypic distance (E13 [5]; 1000 nM) of 3.73, a phenotypic distance (E13 [5]; 3000 nM) of 4.86 and a phenotypic distance (E31 [6]; 4.1 nM) of 0.558. The phenotypic distance (E31 [6]; 12.3 nM) was 0.764, the phenotypic distance (E31 [6]; 37 nM) was 0.809 and the phenotypic distance (E31 [6]; 111.1 nM) was 0.828. For the same molecule, the phenotypic distance (E31 [6]; 333.3 nM) was 1.83, the phenotypic distance (E31 [6]; 1000 nM) was 3.63 and the phenotypic distance (E31 [6]; 3000 nM) was 4.82. For the same molecule, the phenotypic distance (E57 [7]; 4.1 nM) was 0.552, the phenotypic distance (E57 [7]; 12.3 nM) was 1.14 and the phenotypic distance (E57 [7]; 37 nM) was 0.391. It also gave a phenotypic distance (E57 [7]; 111.1 nM) of 0.908, a phenotypic distance (E57 [7]; 333.3 nM) of 3.27 and a phenotypic distance (E57 [7]; 1000 nM) of 4.63. It also gave a phenotypic distance (E57 [7]; 3000 nM) of 6.24, a surviving fraction (FT3469 [8]; 4.1 nM) of 0.774 and a surviving fraction (FT3469 [8]; 12.3 nM) of 0.984. For the same molecule, the surviving fraction (FT3469 [8]; 37 nM) was 1.03, the surviving fraction (FT3469 [8]; 111.1 nM) was 0.968 and the surviving fraction (FT3469 [8]; 333.3 nM) was 0.801. The surviving fraction (FT3469 [8]; 1000 nM) was 0.652, the surviving fraction (FT3469 [8]; 3000 nM) was 0.62 and the surviving fraction (E21 [9]; 4.1 nM) was 0.996. The surviving fraction (E21 [9]; 12.3 nM) was 0.951, the surviving fraction (E21 [9]; 37 nM) was 0.891 and the surviving fraction (E21 [9]; 111.1 nM) was 0.887. The surviving fraction (E21 [9]; 333.3 nM) was 0.582, the surviving fraction (E21 [9]; 1000 nM) was 0.473 and the surviving fraction (E21 [9]; 3000 nM) was 0.331. It also gave a surviving fraction (E34 [10]; 4.1 nM) of 0.86, a surviving fraction (E34 [10]; 12.3 nM) of 0.942 and a surviving fraction (E34 [10]; 37 nM) of 0.861. The surviving fraction (E34 [10]; 111.1 nM) was 1.04, the surviving fraction (E34 [10]; 333.3 nM) was 0.767 and the surviving fraction (E34 [10]; 1000 nM) was 0.63. It also gave a surviving fraction (E34 [10]; 3000 nM) of 0.568, a surviving fraction (E28 [11]; 4.1 nM) of 1.01 and a surviving fraction (E28 [11]; 12.3 nM) of 1.11. The surviving fraction (E28 [11]; 37 nM) was 0.883, the surviving fraction (E28 [11]; 111.1 nM) was 0.991 and the surviving fraction (E28 [11]; 333.3 nM) was 1.02. For the same molecule, the surviving fraction (E28 [11]; 1000 nM) was 0.998, the surviving fraction (E28 [11]; 3000 nM) was 0.537 and the surviving fraction (E13 [12]; 4.1 nM) was 0.965. The surviving fraction (E13 [12]; 12.3 nM) was 1.05, the surviving fraction (E13 [12]; 37 nM) was 0.962 and the surviving fraction (E13 [12]; 111.1 nM) was 0.89. For the same molecule, the surviving fraction (E13 [12]; 333.3 nM) was 0.662, the surviving fraction (E13 [12]; 1000 nM) was 0.426 and the surviving fraction (E13 [12]; 3000 nM) was 0.354. It also gave a surviving fraction (E31 [13]; 4.1 nM) of 1.01, a surviving fraction (E31 [13]; 12.3 nM) of 0.832 and a surviving fraction (E31 [13]; 37 nM) of 0.916. It also gave a surviving fraction (E31 [13]; 111.1 nM) of 0.996, a surviving fraction (E31 [13]; 333.3 nM) of 0.946 and a surviving fraction (E31 [13]; 1000 nM) of 0.603. For the same molecule, the surviving fraction (E31 [13]; 3000 nM) was 0.348, the surviving fraction (E57 [14]; 4.1 nM) was 0.942 and the surviving fraction (E57 [14]; 12.3 nM) was 0.969. For the same molecule, the surviving fraction (E57 [14]; 37 nM) was 1.05, the surviving fraction (E57 [14]; 111.1 nM) was 0.975 and the surviving fraction (E57 [14]; 333.3 nM) was 0.663. The surviving fraction (E57 [14]; 1000 nM) was 0.346 and the surviving fraction (E57 [14]; 3000 nM) was 0.238.
